Experimental data published in patent US9024019B2, “Insecticidal triazinone derivatives” (Syngenta Participations AG, priority 2011, dated 2015).

| SMILES | melting point |
| --- | --- |
| CO/N=C/C1=NNC(=O)N(/N=C/c2cccnc2)C1 | 237 to 238 °C |
| CO/N=C/C1=NNC(=O)N(/N=C/c2cncc(F)c2)C1 | 226 to 227 °C |
| CO/N=C/C1=NNC(=O)N(/N=C/c2ccc[n+]([O-])c2)C1 | 229 °C (dec.) |
| CO/N=C/C1=NNC(=O)N(/N=C/c2cncnc2)C1 | 244 to 245 °C |
| CO/N=C/C1=NNC(=O)N(/N=C/c2cnccn2)C1 | 233 to 234 °C |
| CO/N=C(\C)C1=NNC(=O)N(/N=C/c2cccnc2)C1 | 230 to 231 °C |
| CCO/N=C/C1=NNC(=O)N(/N=C/c2cccnc2)C1 | 233 to 234 °C |
| CN(C)/N=C/C1=NNC(=O)N(/N=C/c2cccnc2)C1 | 229 °C (dec.) |
| CC1(C)CC(C2=NNC(=O)N(/N=C/c3cccnc3)C2)=NO1 | 212 °C (dec.) |
| CC1(C)CC(C2=NNC(=O)N(/N=C/c3cncc(F)c3)C2)=NO1 | 260 °C (dec.) |
| O=C1NN=C(C2=NOC(C(F)(F)F)(C(F)(F)F)C2)CN1/N=C/c1cccnc1 | 270 °C (dec.) |
| O=C1NN=C(C2=NOC(C(F)(F)F)(C(F)(F)F)C2)CN1/N=C/c1cncc(F)c1 | 290 °C (dec.) |
